For experiment [1], the target named is T1, factor Xa (FXa) (Homo sapiens, UniProt P00742).
T1 construct: purchased R&D Systems, Minneapolis, MN
Description: FXa dose-response activity-based DEL screening in droplets, hit replicate count by sequencing. To be noted: for k-class (30% UV): FXa screen at 30% UV intensity; for k-class (100% UV): FXa screen at 100% UV intensity. The class given is biochemical. As for the experimental part:
FXa Library Screening in Droplets
DEL screening for FXa inhibitors was performed in droplets as previously described,4,8 with modifications. After ligating the closing primer, the library was prepared for droplet screening by exchanging into assay buffer, filtering through a 20 µm Celtrics filter, filter-ing through a previously described microfluidic device,4 and counting a dilution with a hemocytometer to determine bead density. AQ1 input contained fluorogenic FXa peptide substrate (6 µM), internal standard 5(6)-TAMRA (2 µM), DEL beads (∼1500 beads/µL), and a PTFE-encapsulated magnet (to agitate beads periodically; 3 mm dia., V&P Scientific, Inc., San Diego, CA) in FXa droplet assay buffer. AQ2 contained FXa (3.8 ng/µL,∼90 nM) in FXa droplet assay buffer.
OIL2 and OIL3 were neat Novec™ 7500.
UV dosing was delivered through a custom fiber optic cable7 controlled through Labview software (National Instruments, Austin, TX). Slight modifications were made to the pre-viously described confocal LIF detection system and LabVIEW code. 3,4 Briefly, droplet […]
(§1) fluorescence emission was detected by photon counting PMTs (H7828, Hamamatsu, Mid-dlesex, NJ) using a custom two-channel (520 and 570 nm) confocal LIF microscope with […]
(§2) code written in house collected signal data and determines droplet sorting decisions. The […]
(§3) Instruments), and binned into packets of counts (∆t = 0.1 ms). Median-filter smoothing (window width = 3) was applied to the signal in real-time. Droplet signal regions were identified by the 570-nm channel signal (countsn> 200) and 520-nm channel signal maxima (max = countsn−1 when countsn< countsn−1).
A dynamic sorting threshold was calculated in real-time to identify “hit droplets” with reduced 520-nm channel fluorescence. The dynamic threshold was calculated as µ - 4.5σ, where µ andσ were the mean and standard deviation of the last 1000 droplets’ fluorescence values, respectively. Hit droplets were excluded from the fluorescence values used to calculate population mean and standard deviation. […]
DNA sequence pattern matching, aggregation by bead barcode, and unique molecular identifier (UMI) filtering were previously described. 3–5 Sequences with a UMI count≤ 5 were discarded. UV doses associated with hit sequences were filtered using the sequencing barcode (Table S5) introduced during library amplification. Of the remaining sequences, compound replicates (k class) were determined by taking the sum of the sequences having the same synthesis encoding region but distinct bead barcodes.

Experiment [2] deals with T1, factor Xa (FXa). Description: Biochemical assay for FXa hit validation (fluorogenic 5-FAM/QXL-520 substrate, microplate). The note with it: for Maximum inhibition (%) / IC50: FXa; for IC50: 30 min preincubation, 25 °C, 4 parameter logistic fit. The protocol: Biochemical Assay for FXa Hit Validation […]
plate assay buffer). Compound dilutions (2.5 µL) were added to FXa (90 nM, 5 µL) in 384-well black-bottom microplates (Corning Scientific, Corning, NY) in triplicate and […]
(§4) incubated (30 min, 25 °C). […]
added and reaction progress was monitored immediately (λex = 483 nm,λem = 530 nm, 25 °C, CLARIOStar Plus, BMG LABTECH, Ortenberg, Germany). The percent activity was taken as the slope of the fluorescence increase over time (1–10 min) relative to that of a vehicle control. IC50 values were determined by fitting the data to a 4 parameter logistic model using nonlinear regression. […]

Experiment [3] addresses T2, autotaxin (ATX) (Homo sapiens, UniProt Q13822).
T2 construct: purchased Echelon Biosciences, Salt Lake City, UT
Description: ATX dose-response activity-based DEL screening in droplets, hit replicate count by sequencing. The class given is biochemical. To be noted: for k-class (20% UV): ATX screen at 20% UV intensity; for k-class (100% UV): ATX screen at 100% UV intensity.
Excerpt: as §1, §2, §3
A dynamic sorting threshold was calculated in real-time to identify “hit droplets” with reduced 520-nm channel fluorescence. The dynamic threshold was calculated as µ - 4.5σ, where µ andσ were the mean and standard deviation of the last 1000 droplets’ fluorescence values, respectively. Hit droplets were excluded from the fluorescence values used to calculate population mean and standard deviation. When a hit droplet was detected (droplet fluorescence< µ – 4.5σ counts), LabVIEW output a TTL pulse from the DAQ […]
triggering a square wave pulse output (0–7.5 V, 10 kHz, 300 cycles) that was amplified […]
NY) and conducted through luer-lok needle-fitted and microbore tygon tubing filled with liquid metal (gallium:indium:tin alloy 62:22:16 (w%), Alfa Aeser) into a microfabricated […]
ATX Library Screening in Droplets
The ATX droplet screening assay was performed similarly to the FXa assay, but with ATX assay reagents. This was a modification of previously described protocols.4 AQ1 input contained fluorogenic ATX substrate FS-3 9 (10 µM), internal standard 5(6)-TAMRA (5 µM), […]
excised, eluted (C&S buffer, 100 µL, 100 rpm, ON), and pooled for Illumina sequencing at the UCI genomics high throughput facility (MiSeq v2 Nano or MiSeq v2 Micro, paired end).
DNA sequence pattern matching, aggregation by bead barcode, and unique molecular identifier (UMI) filtering were previously described. 3–5 Sequences with a UMI count≤ 5 were discarded. UV doses associated with hit sequences were filtered using the sequencing barcode (Table S5) introduced during library amplification. Of the remaining sequences, compound replicates (k class) were determined by taking the sum of the sequences having the same synthesis encoding region but distinct bead barcodes. […]
(§5) 384-well black-bottom microplates (Corning Scientific, Corning, NY) in triplicate and […]
as §4

Experiment [4] addresses T2, autotaxin (ATX). Description: Biochemical assay for ATX hit validation (FS-3 substrate, microplate). The note with it: for Maximum inhibition (%) / IC50: ATX; for IC50: relative IC50, 30 min preincubation, 25 °C, 4 parameter logistic fit. The protocol: as §5, §4
Biochemical Assay for ATX Hit Validation […]
plate assay buffer). Compound dilutions (2.5 µL) were added to ATX (100 nM, 5 µL) in 384-well black-bottom microplates (Corning Scientific, Corning, NY) in triplicate and incubated (30 min, 25 °C). FS-3 (20 µM, 2.5 µL) was added and reaction progress was monitored immediately (λex = 483 nm, λem = 530 nm, 25 °C, CLARIOStar Plus, BMG LABTECH). The percent activity was taken as the slope of the fluorescence increase over […]
time (1–10 min) relative to that of a vehicle control. IC50 values were determined by fitting the data to a 4 parameter logistic model using nonlinear regression. […]
Vmax = [S]KM(1 + [I]Ki ) + [S]. […]
v = Vmax(1 + [I]/Ki)[S]. (3)
Rearranging to express relative velocity (v/Vmax):
Vmax = [S](KM + [S])(1 + [I]/Ki). (4)

The subject of experiment [5] is FXa. On the set-up: method as in PMID 16161994. The note with it: cited from earlier work.

Entries after “also recorded” stand apart in the source; their conditions may differ.

T1 sequence (P00742 235-488 limits assumed): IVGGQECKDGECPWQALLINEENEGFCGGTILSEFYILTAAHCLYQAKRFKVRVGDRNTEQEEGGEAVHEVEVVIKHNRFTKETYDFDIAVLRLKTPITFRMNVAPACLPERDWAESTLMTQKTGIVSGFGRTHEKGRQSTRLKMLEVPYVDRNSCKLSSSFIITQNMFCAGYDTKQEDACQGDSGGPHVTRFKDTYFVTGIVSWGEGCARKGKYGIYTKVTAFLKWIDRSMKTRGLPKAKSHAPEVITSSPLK
T1 sequence (P00742 41-179 partner limits assumed): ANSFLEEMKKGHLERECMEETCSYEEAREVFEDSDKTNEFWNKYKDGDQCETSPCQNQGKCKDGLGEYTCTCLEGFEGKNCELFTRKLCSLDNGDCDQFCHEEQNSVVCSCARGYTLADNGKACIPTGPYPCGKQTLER

By IC50 is commonly meant the concentration needed to halve the response being measured. Consider `NC(=O)[C@@H](Cc1csc2ccccc12)NC(=O)c1ccc(N2CCCC2=O)cc1` [Hit 1a], for which, in experiment [1], the “k-class (30% UV)” value was 14 and the “k-class (100% UV)” value was 4. In experiment [2], the “Maximum inhibition (%)” value is given as 93% and the IC50 came out at 4.2 ± 0.1 µM.

`NC(=O)[C@@H](Cc1csc2ccccc12)NC(=O)c1ccc(N2CCOCC2)cc1` [Hit 1b]: in experiment [1], the “k-class (30% UV)” value turned out to be 9 and the “k-class (100% UV)” value amounted to 4. Besides, in experiment [2], the “Maximum inhibition (%)” value came to 85% and half-maximal inhibition (IC50) was put at 7.4 ± 0.3 µM.

On to `NC(=O)[C@@H](Cc1c[nH]c2ccccc12)NC(=O)c1ccc(N2CCCC2=O)cc1` [Hit 2a], for which, in experiment [1], the “k-class (30% UV)” value came to 9 and the “k-class (100% UV)” value is 6. In experiment [2], the “Maximum inhibition (%)” value was determined as 95% and inhibition was half-maximal at 9 ± 0.3 µM (IC50).

With `NC(=O)[C@@H]1CCCN1C1CCN(C(=O)c2cn3cc(Cl)ccc3n2)CC1` [Hit 3a], in experiment [1], the “k-class (30% UV)” value was 8 and the “k-class (100% UV)” value is 9. In experiment [2], the “Maximum inhibition (%)” value worked out at 28% and the IC50 is above 300 µM. In experiment [2] (at 100 μM), the “FXa inhibition (in words)” value is “weakly inhibited FXa”.

As for `NC(=O)c1cccc(CNC(=O)c2ccc(Cl)s2)c1` [Hit 5a], in experiment [1], the “k-class (30% UV)” value is recorded as 10 and the “k-class (100% UV)” value is 8. Besides, in experiment [2], the “Maximum inhibition (%)” value came out at 58% and it took 19 ± 2 µM to reach half-maximal inhibition (IC50).

Consider `NC(=O)c1cccc(CNC(=O)c2csc(Cc3ccccc3)n2)c1` [Hit 12a], for which, in experiment [3], the “k-class (20% UV)” value came to 4 and the “k-class (100% UV)” value worked out at 8. Also, in experiment [4], the “ATX inhibition (in words)” value was “least potent”, the “Maximum inhibition (%)” value is given as 94% and the IC50 came to 28 ± 14 µM.

With `NC(=O)c1cccc(CNC(=O)[C@@H]2C[C@H]2c2ccccc2)c1` [Hit 12b], in experiment [3], the “k-class (20% UV)” value stood at 2 and the “k-class (100% UV)” value worked out at 3. Besides, in experiment [4], the “ATX inhibition (in words)” value is “false positive; also recorded: did not inhibit ATX” and the IC50 was above 300 µM.

Regarding `Cc1cccn2cc(C(=O)NC3c4ccccc4CCc4cc(OCC(N)=O)ccc43)nc12` (stereo not drawn) [Hit 13a], in experiment [3], the “k-class (20% UV)” value is on record as 0 and the “k-class (100% UV)” value stood at 3. Further, in experiment [4], the “Maximum inhibition (%)” value amounted to 57% and the IC50 came to 6 ± 1 µM.

Consider `NC(=O)COc1ccc2c(c1)CCc1ccccc1C2NC(=O)c1ccc(Cl)o1` (stereo not drawn) [Hit 13b], for which, in experiment [3], the “k-class (20% UV)” value came out at 0 and the “k-class (100% UV)” value was 3. Moreover, in experiment [4], the “Maximum inhibition (%)” value is recorded as 26% and the IC50 turned out to be 6 ± 3 µM.

For the compound `NC(=O)Cn1c(=O)n(C2CCN(C(=O)c3ccc(Cl)cc3C(F)(F)F)CC2)c2ccccc21` [Hit 16a], in experiment [3], the “k-class (20% UV)” value came out at 6 and the “k-class (100% UV)” value came out at 4. Moreover, in experiment [4], the “ATX inhibition (in words)” value is “inhibited ATX fully”, the “Maximum inhibition (%)” value is listed as 91% and the IC50 was 7 ± 2 µM.

Take `NC(=O)Cn1c(=O)n(C2CCN(C(=O)c3cnn(CC4CCCCC4)c3)CC2)c2ccccc21` [Hit 16b]: in experiment [3], the “k-class (20% UV)” value is listed as 4 and the “k-class (100% UV)” value is 2. Besides, in experiment [4], the “ATX inhibition (in words)” value is “inhibited ATX fully”, the “Maximum inhibition (%)” value worked out at 96% and the IC50 amounted to 13 ± 2 µM.

On to `NC(=O)c1ccc2c(c1)CCN(C(=O)c1cnn(CC3CCCCC3)c1)C2` [Hit 17a], for which, in experiment [3], the “k-class (20% UV)” value came to 7 and the “k-class (100% UV)” value is given as 6. For the same compound, in experiment [4], the “ATX inhibition (in words)” value is “inhibited ATX fully”, the “Maximum inhibition (%)” value is 91% and half-maximal inhibition (IC50) required 1 ± 0.3 µM.

In the case of `O=C(NC[C@H]1CN(c2ccc(N3CCOCC3=O)cc2)C(=O)O1)c1ccc(Cl)s1` [rivaroxaban, 5-Chloro-N-({(5S)-2-Oxo-3-[4-(3-Oxomorpholin-4-yl)phenyl]-1,3-Oxazolidin-5-yl}methyl)thiophene-2-Carboxamide], the IC50 in experiment [5] was […].

These data come from paper PMC10510511, “Dose–Response Activity-Based DNA-Encoded Library Screening” (ACS Medicinal Chemistry Letters, 2023).
